From ChEMBL document CHEMBL3297661, “1-Substituted-5-[(3,5-dinitrobenzyl)sulfanyl]-1H-tetrazoles and their isosteric analogs: A new class of selective antitubercular agents active against drug-susceptible and multidrug-resistant mycobacteria” (Eur J Med Chem, 2014)
In brackets after ≈: the same amount, converted by molar mass.

How the values were obtained:
[1] = tested on: Mycobacterium tuberculosis; test: Antimycobacterial activity against Mycobacterium tuberculosis H37Rv; type: functional
Candida albicans [2] = test: Antifungal activity against Candida albicans ATCC 44859 after 48 hrs by broth microdilution method; type: functional; conditions: ATCC 44859, 48 h
Trichosporon asahii [3] = test: Antifungal activity against Trichosporon asahii 1188 after 24 hrs by broth microdilution method; type: functional; conditions: Trichosporon asahii, 1188, 24 h
Mycobacterium kansasii [4] = test: Antimycobacterial activity against Mycobacterium kansasii CNCTC My 235/80 after 14 days by micromethod; type: functional; conditions: CNCTC My 235/80, 336 h
Mycobacterium kansasii [5] = test: Antimycobacterial activity against Mycobacterium kansasii CNCTC My 235/80 after 21 days by micromethod; type: functional; conditions: CNCTC My 235/80, 504 h
Mycobacterium avium [6] = test: Antimycobacterial activity against Mycobacterium avium CNCTC My 330/88 after 14 days by micromethod; type: functional; conditions: CNCTC My 330/88, 336 h
Enterococcus faecalis [7] = test: Antibacterial activity against Enterococcus faecalis J 14365/08 after 24 hrs by broth microdilution method; type: functional; conditions: J 14365/08, 24 h
Candida tropicalis [8] = test: Antifungal activity against Candida tropicalis 156 after 48 hrs by broth microdilution method; type: functional; conditions: Candida tropicalis, 156, 48 h
Pichia kudriavzevii [9] = test: Antifungal activity against Candida krusei E28 after 24 hrs by broth microdilution method; type: functional; conditions: E28, 24 h
Aspergillus fumigatus [10] = test: Antifungal activity against Aspergillus fumigatus 231 after 48 hrs by broth microdilution method; type: functional, organism-based; conditions: Aspergillus fumigatus, 231, 48 h
Staphylococcus aureus [11] = test: Antibacterial activity against methicillin-resistant Staphylococcus aureus H 5996/08 after 48 hrs by broth microdilution method; type: functional; conditions: H 5996/08, 48 h
Pichia kudriavzevii [12] = test: Antifungal activity against Candida krusei E28 after 48 hrs by broth microdilution method; type: functional; conditions: E28, 48 h
Pseudomonas aeruginosa [13] = test: Antibacterial activity against Pseudomonas aeruginosa ATCC 9027 after 48 hrs by broth microdilution method; type: functional; conditions: ATCC 9027, 48 h
[14] = tested on: Staphylococcus epidermidis; test: Antibacterial activity against Staphylococcus epidermidis H 6966/08 after 48 hrs by broth microdilution method; type: functional; conditions: H 6966/08, 48 h
Escherichia coli [15] = test: Antibacterial activity against Escherichia coli ATCC 8739 after 48 hrs by broth microdilution method; type: functional; conditions: ATCC 8739, ATCC 8739, 48 h
[16] = Cytotoxicity against human HepG2 cells assessed as cell viability at 30 uM after 48 hrs by MTT assay; type: cell-based; conditions: read-out: Activity
[17] = tested on: Mycobacterium tuberculosis; test: Antimycobacterial activity against Mycobacterium tuberculosis CNCTC My 331/88 after 14 days by micromethod; type: functional; conditions: CNCTC My 331/88, 336 h
Klebsiella pneumoniae [18] = test: Antibacterial activity against extended spectrum beta-lactamase producing Klebsiella pneumoniae J 14368/08 after 24 hrs by broth microdilution method; type: functional; conditions: J 14368/08, 24 h
Staphylococcus aureus [19] = test: Antibacterial activity against Staphylococcus aureus ATCC 6538 after 24 hrs by broth microdilution method; type: functional; conditions: ATCC 6538, 24 h
Trichosporon asahii [20] = test: Antifungal activity against Trichosporon asahii 1188 after 48 hrs by broth microdilution method; type: functional; conditions: Trichosporon asahii, 1188, 48 h
[21] = Cytotoxicity against MDCK2 cells assessed as cell viability at 30 uM after 48 hrs by MTT assay; type: cell-based, Canis lupus familiaris, MDCK-II; conditions: dog, read-out: Activity
HepG2 = test: Cytotoxicity against human HepG2 cells assessed as reduction in cell viability after 48 hrs by MTT assay; type: cell-based; conditions: HepG2, 48 h
Mycobacterium kansasii [22] = test: Antimycobacterial activity against Mycobacterium kansasii 6509/96 after 14 days by micromethod; type: functional; conditions: 6509/96, 336 h
Klebsiella pneumoniae [23] = test: Antibacterial activity against Klebsiella pneumoniae D 11750/08 after 24 hrs by broth microdilution method; type: functional; conditions: D 11750/08, 24 h
Lichtheimia corymbifera [24] = test: Antifungal activity against Absidia corymbifera 272 after 48 hrs by broth microdilution method; type: functional, organism-based; conditions: Lichtheimia corymbifera, 272, 48 h
HeLa = test: Cytotoxicity against human HeLa cells assessed as reduction in cell viability after 48 hrs by MTT assay; type: cell-based
Escherichia coli [25] = test: Antibacterial activity against Escherichia coli ATCC 8739 after 24 hrs by broth microdilution method; type: functional; conditions: ATCC 8739, ATCC 8739, 24 h
Lichtheimia corymbifera [26] = test: Antifungal activity against Absidia corymbifera 272 after 24 hrs by broth microdilution method; type: functional, organism-based; conditions: Lichtheimia corymbifera, 272, 24 h
Enterococcus faecalis [27] = test: Antibacterial activity against Enterococcus faecalis J 14365/08 after 48 hrs by broth microdilution method; type: functional; conditions: J 14365/08, 48 h
Nakaseomyces glabratus [28] = test: Antifungal activity against Candida glabrata 20/I after 48 hrs by broth microdilution method; type: functional
[29] = tested on: Mycobacterium tuberculosis; test: Antimycobacterial activity against Mycobacterium tuberculosis CNCTC My 331/88 after 21 days by micromethod; type: functional; conditions: CNCTC My 331/88, 504 h
[30] = Cytotoxicity against human HeLa cells assessed as cell viability at 30 uM after 48 hrs by MTT assay; type: cell-based; conditions: read-out: Activity
Mycobacterium avium [31] = test: Antimycobacterial activity against Mycobacterium avium CNCTC My 330/88 after 21 days by micromethod; type: functional; conditions: CNCTC My 330/88, 504 h
[32] = Cytotoxicity against MDCK2 cells assessed as reduction in cell viability after 48 hrs by MTT assay; type: cell-based; conditions: Canis lupus familiaris, MDCK-II
Candida albicans [33] = test: Antifungal activity against Candida albicans ATCC 44859 after 24 hrs by broth microdilution method; type: functional; conditions: ATCC 44859, 24 h
[34] = tested on: Trichophyton mentagrophytes; test: Antifungal activity against Trichophyton mentagrophytes 445 after 72 hrs by broth microdilution method; type: functional, organism-based; conditions: Trichophyton mentagrophytes, 445, 72 h
Staphylococcus aureus [35] = test: Antibacterial activity against methicillin-resistant Staphylococcus aureus H 5996/08 after 24 hrs by broth microdilution method; type: functional; conditions: H 5996/08, 24 h
Nakaseomyces glabratus [36] = test: Antifungal activity against Candida glabrata 20/I after 24 hrs by broth microdilution method; type: functional
Staphylococcus aureus [37] = test: Antibacterial activity against Staphylococcus aureus ATCC 6538 after 48 hrs by broth microdilution method; type: functional; conditions: ATCC 6538, 48 h
Candida tropicalis [38] = test: Antifungal activity against Candida tropicalis 156 after 24 hrs by broth microdilution method; type: functional; conditions: Candida tropicalis, 156, 24 h
Klebsiella pneumoniae [39] = test: Antibacterial activity against extended spectrum beta-lactamase producing Klebsiella pneumoniae J 14368/08 after 48 hrs by broth microdilution method; type: functional; conditions: J 14368/08, 48 h
[40] = Cytotoxicity against human HuH7 cells assessed as reduction in cell viability after 48 hrs by MTT assay; type: cell-based; conditions: Huh-7, 48 h
[41] = tested on: Trichophyton mentagrophytes; test: Antifungal activity against Trichophyton mentagrophytes 445 after 120 hrs by broth microdilution method; type: functional, organism-based; conditions: Trichophyton mentagrophytes, 445, 120 h
Mycobacterium kansasii [42] = test: Antimycobacterial activity against Mycobacterium kansasii 6509/96 after 21 days by micromethod; type: functional; conditions: 6509/96, 504 h
Mycobacterium kansasii [43] = test: Antimycobacterial activity against Mycobacterium kansasii CNCTC My 235/80 after 7 days by micromethod; type: functional; conditions: CNCTC My 235/80, 168 h
[44] = Cytotoxicity against human HuH7 cells assessed as cell viability at 30 uM after 48 hrs by MTT assay; type: cell-based, Huh-7; conditions: read-out: Activity
[45] = tested on: Staphylococcus epidermidis; test: Antibacterial activity against Staphylococcus epidermidis H 6966/08 after 24 hrs by broth microdilution method; type: functional; conditions: H 6966/08, 24 h
Pseudomonas aeruginosa [46] = test: Antibacterial activity against Pseudomonas aeruginosa ATCC 9027 after 24 hrs by broth microdilution method; type: functional; conditions: ATCC 9027, 24 h
Klebsiella pneumoniae [47] = test: Antibacterial activity against Klebsiella pneumoniae D 11750/08 after 48 hrs by broth microdilution method; type: functional; conditions: D 11750/08, 48 h
Aspergillus fumigatus [48] = test: Antifungal activity against Aspergillus fumigatus 231 after 24 hrs by broth microdilution method; type: functional, organism-based; conditions: Aspergillus fumigatus, 231, 24 h
Mycobacterium kansasii [49] = test: Antimycobacterial activity against Mycobacterium kansasii 6509/96 after 7 days by micromethod; type: functional; conditions: 6509/96, 168 h

Compound `C[C@H]1COC2(CCN(c3nc(=O)c4cc(C(F)(F)F)cc([N+](=O)[O-])c4s3)CC2)O1` [BTZ-043] has an MIC [1] of 0.0023 µM (≈ 0.000992 µg/mL).

In the case of `C[C@]1(COc2ccc(N3CCC(Oc4ccc(OC(F)(F)F)cc4)CC3)cc2)Cn2cc([N+](=O)[O-])nc2O1` [DELAMANID], the MIC [1] is reported as 0.02 µM (≈ 0.0107 µg/mL).

Compound `O=[N+]([O-])c1cn2c(n1)OC[C@@H](OCc1ccc(OC(F)(F)F)cc1)C2` [PRETOMANID] has an MIC [1] of 0.11 µM (≈ 0.0395 µg/mL).

`O=[N+]([O-])c1cc(CSc2nnnn2Cc2ccccc2)cc([N+](=O)[O-])c1` gave an IC80 (Candida albicans [2]) greater than 500 µM, an IC80 (Trichosporon asahii [3]) greater than 500 µM and an MIC (Mycobacterium kansasii [4]) of 8 µM (≈ 2.98 µg/mL). It also gave an MIC (Mycobacterium kansasii [5]) of 8 µM (≈ 2.98 µg/mL), an MIC (Mycobacterium avium [6]) of 250 µM (≈ 93.1 µg/mL) and an IC95 (Enterococcus faecalis [7]) greater than 500 µM. It also gave an IC80 (Candida tropicalis [8]) greater than 500 µM, an IC80 (Pichia kudriavzevii [9]) greater than 500 µM and an IC50 (Aspergillus fumigatus [10]) greater than 500 µM. The IC95 (Staphylococcus aureus [11]) was greater than 500 µM, the IC80 (Pichia kudriavzevii [12]) was greater than 500 µM and the IC95 (Pseudomonas aeruginosa [13]) was greater than 500 µM. The IC95 [14] was greater than 500 µM, the IC95 (Escherichia coli [15]) was greater than 500 µM and the viability at 48 h, 30 µM [16] was 94%. It also gave an MIC [17] of 1 µM (≈ 0.372 µg/mL), an IC95 (Klebsiella pneumoniae [18]) greater than 500 µM and an IC95 (Staphylococcus aureus [19]) greater than 500 µM. For the same compound, the IC80 (Trichosporon asahii [20]) was greater than 500 µM, the viability at 48 h, 30 µM [21] was 87% and the IC50 (HepG2) was greater than 30 µM. The MIC (Mycobacterium kansasii [22]) was 4 µM (≈ 1.49 µg/mL), the IC95 (Klebsiella pneumoniae [23]) was greater than 500 µM and the IC50 (Lichtheimia corymbifera [24]) was greater than 500 µM. It also gave an IC50 (HeLa) greater than 30 µM, an IC95 (Escherichia coli [25]) greater than 500 µM and an IC50 (Lichtheimia corymbifera [26]) greater than 500 µM. The IC95 (Enterococcus faecalis [27]) was greater than 500 µM, the IC80 (Nakaseomyces glabratus [28]) was greater than 500 µM and the MIC [29] was 2 µM (≈ 0.745 µg/mL). The viability at 48 h, 30 µM [30] was 91%, the MIC (Mycobacterium avium [31]) was 250 µM (≈ 93.1 µg/mL) and the IC50 [32] was greater than 30 µM. For the same compound, the IC80 (Candida albicans [33]) was greater than 500 µM, the IC50 [34] was greater than 500 µM and the IC95 (Staphylococcus aureus [35]) was greater than 500 µM. For the same compound, the IC80 (Nakaseomyces glabratus [36]) was greater than 500 µM, the IC95 (Staphylococcus aureus [37]) was greater than 500 µM and the IC80 (Candida tropicalis [38]) was greater than 500 µM. The IC95 (Klebsiella pneumoniae [39]) was greater than 500 µM, the IC50 [40] was greater than 30 µM and the IC50 [41] was greater than 500 µM. For the same compound, the MIC (Mycobacterium kansasii [42]) was 4 µM (≈ 1.49 µg/mL), the MIC (Mycobacterium kansasii [43]) was 2 µM (≈ 0.745 µg/mL) and the viability at 48 h, 30 µM [44] was 112%. It also gave an IC95 [45] greater than 500 µM, an IC95 (Pseudomonas aeruginosa [46]) greater than 500 µM and an IC95 (Klebsiella pneumoniae [47]) greater than 500 µM. For the same compound, the IC50 (Aspergillus fumigatus [48]) was greater than 500 µM and the MIC (Mycobacterium kansasii [49]) was 2 µM (≈ 0.745 µg/mL).
